Assay results as given in ChEMBL document CHEMBL1141502, “Synthesis of hybrid acetogenins, alpha,beta-unsaturated-gamma-lactone-free nitrogen-containing heterocyclic analogues, and their cytotoxicity against human cancer cell lines” (2008).

Key:
Assay type in all cases: functional
MKN-45 = assay: Antiproliferative activity against human MKN45 cells by sulforhodamine B assay relative to control
SNB-75 = assay: Antiproliferative activity against human SNB75 cells by sulforhodamine B assay relative to control
A549 = assay: Antiproliferative activity against human A549 cells by sulforhodamine B assay relative to control
NCI-H460 = assay: Antiproliferative activity against human NCI-H460 cells by sulforhodamine B assay relative to control
NCI-H226 = assay: Antiproliferative activity against human NCI-H226 cells by sulforhodamine B assay relative to control
[1] = Antiproliferative activity against human OVACR3 cells by sulforhodamine B assay relative to control
PC-3 = assay: Antiproliferative activity against human PC3 cells by sulforhodamine B assay relative to control
MKN-7 = assay: Antiproliferative activity against human MKN7 cells by sulforhodamine B assay relative to control
[2] = Antiproliferative activity against human HBC4 cells by sulforhodamine B assay relative to control
HCT-116 = assay: Antiproliferative activity against human HCT116 cells by sulforhodamine B assay relative to control
LOX IMVI = assay: Antiproliferative activity against human LOX IMVI cells by sulforhodamine B assay relative to control
SF-295 = assay: Antiproliferative activity against human SF295 cells by sulforhodamine B assay relative to control
MKN-28 = assay: Antiproliferative activity against human MKN28 cells by sulforhodamine B assay relative to control
SF-539 = assay: Antiproliferative activity against human SF539 cells by sulforhodamine B assay relative to control
SNB-78 = assay: Antiproliferative activity against human SNB78 cells by sulforhodamine B assay relative to control
SF-268 = assay: Antiproliferative activity against human SF268 cell by sulforhodamine B assay relative to control
ACHN = assay: Antiproliferative activity against human ACHN cells by sulforhodamine B assay relative to control
MCF7 = assay: Antiproliferative activity against human MCF7 cells by sulforhodamine B assay relative to control
SK-OV-3 = assay: Antiproliferative activity against human SKOV3 cells by sulforhodamine B assay relative to control
[3] = Antiproliferative activity against human OVACR4 cells by sulforhodamine B assay relative to control
[4] = Antiproliferative activity against human RXF631L cells by sulforhodamine B assay relative to control; conditions: RXF 631
[5] = Antiproliferative activity against human HBC5 cells by sulforhodamine B assay relative to control
NCI-H522 = assay: Antiproliferative activity against human NCI-H522 cells by sulforhodamine B assay relative to control
[6] = Antiproliferative activity against human MKN1 cells by sulforhodamine B assay relative to control; conditions: MKN-1
[7] = Antiproliferative activity against human BSY1 cells by sulforhodamine B assay relative to control; conditions: BSY-1
HT-29 = assay: Antiproliferative activity against human HT29 cells by sulforhodamine B assay relative to control
DU-145 = assay: Antiproliferative activity against human DU145 cells by sulforhodamine B assay relative to control
[8] = Antiproliferative activity against human OVACR5 cells by sulforhodamine B assay relative to control
HCT-15 = assay: Antiproliferative activity against human HCT15 cells by sulforhodamine B assay relative to control
DMS-273 = assay: Antiproliferative activity against human DMS273 cells by sulforhodamine B assay relative to control
U-251 = assay: Antiproliferative activity against human U251 cells by sulforhodamine B assay relative to control
DMS-114 = assay: Antiproliferative activity against human DMS114 cells by sulforhodamine B assay relative to control
St-4 = assay: Antiproliferative activity against human St4 cells by sulforhodamine B assay relative to control
[9] = Antiproliferative activity against human OVACR8 cells by sulforhodamine B assay relative to control
HCC 2998 = assay: Antiproliferative activity against human HCC2998 cells by sulforhodamine B assay relative to control
KM12 = assay: Antiproliferative activity against human KM12 cells by sulforhodamine B assay relative to control
MDA-MB-231 = assay: Antiproliferative activity against human MDA-MB-231 cells by sulforhodamine B assay relative to control
MKN-74 = assay: Antiproliferative activity against human MKN74 cells by sulforhodamine B assay relative to control
NCI-H23 = assay: Antiproliferative activity against human NCI-H23 cells by sulforhodamine B assay relative to control

SMILES: CCCCCCCCCCCC[C@@H](O)[C@H]1CC[C@H]([C@H](O)CCCCCCCCCCCCC2=C[C@H](C)OC2=O)O1 [REL-SOLAMIN]
- GI50 (MKN-45): > 100 µM
- GI50 (SNB-75): > 100 µM
- GI50 (A549): > 100 µM
- GI50 (NCI-H460): > 100 µM
- GI50 (NCI-H226): > 100 µM
- GI50 [1]: > 100 µM
- GI50 (PC-3): > 100 µM
- GI50 (MKN-7): 13 µM
- GI50 [2]: > 100 µM
- GI50 (HCT-116): > 100 µM
- GI50 (LOX IMVI): 29 µM
- GI50 (SF-295): 40 µM
- GI50 (MKN-28): 14 µM
- GI50 (SF-539): > 100 µM
- GI50 (SNB-78): > 100 µM
- GI50 (SF-268): > 100 µM
- GI50 (ACHN): > 100 µM
- GI50 (MCF7): 71 µM
- GI50 (SK-OV-3): > 100 µM
- GI50 [3]: > 100 µM
- GI50 [4]: > 100 µM
- GI50 [5]: > 100 µM
- GI50 (NCI-H522): 58 µM
- GI50 [6]: > 100 µM
- GI50 [7]: > 100 µM
- GI50 (HT-29): > 100 µM
- GI50 (DU-145): > 100 µM
- GI50 [8]: > 100 µM
- GI50 (HCT-15): > 100 µM
- GI50 (DMS-273): > 100 µM
- GI50 (U-251): > 100 µM
- GI50 (DMS-114): 4.3 µM
- GI50 (St-4): > 100 µM
- GI50 [9]: > 100 µM
- GI50 (HCC 2998): > 100 µM
- GI50 (KM12): > 100 µM
- GI50 (MDA-MB-231): > 100 µM
- GI50 (MKN-74): > 100 µM
- GI50 (NCI-H23): 73 µM
